{"source": "patent US10487087B2", "about": "“Positive allosteric modulators of the GLP-1 receptor” (Vanderbilt University, priority 2015, dated 2019)", "molecular_target": "human GLP-1R (Homo sapiens (Human), UniProt P43220)", "sequence (P43220 24-463)": "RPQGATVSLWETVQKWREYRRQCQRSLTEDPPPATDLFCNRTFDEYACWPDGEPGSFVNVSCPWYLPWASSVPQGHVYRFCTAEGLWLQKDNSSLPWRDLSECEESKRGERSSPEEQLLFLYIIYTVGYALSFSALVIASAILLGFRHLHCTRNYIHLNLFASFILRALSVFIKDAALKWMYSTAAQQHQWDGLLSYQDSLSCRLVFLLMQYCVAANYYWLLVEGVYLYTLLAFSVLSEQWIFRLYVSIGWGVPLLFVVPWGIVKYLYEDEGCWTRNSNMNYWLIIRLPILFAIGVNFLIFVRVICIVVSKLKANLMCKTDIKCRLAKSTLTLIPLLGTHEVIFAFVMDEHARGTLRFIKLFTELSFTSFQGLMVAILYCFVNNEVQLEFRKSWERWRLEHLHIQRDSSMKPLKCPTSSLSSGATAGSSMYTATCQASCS", "experiment": "GLP-1 assay with GLP1 endogenous agonist (calcium mobilization, EC20 GLP-1 peptide 7-36 amide)", "assay_type": "cell-based", "settings": "calcium flux; for Emax at 30 µM: 30 μM compound, EC20 of GLP-1 7-36 amide; for pEC50: potentiation of EC20 GLP-1 7-36 amide", "excerpt": "A. GLP-1 Assay with GLP1 Endogenous Agonist\nTo assess the effects of test compounds on GLP-1 or glucagon potency and efficacy, a high-throughput calcium mobilization assay was used essentially as previously described (Morris L C, Days E L, Turney M, Mi D, Lindsley C W, Weaver C D, Niswender K D, A Duplexed High-Throughput Screen to Identify Allosteric Modulators of the Glucagon-Like Peptide 1 and Glucagon Receptors. J. Biomol. Screen. 2014 Feb. 13, 19(6):847-858). Briefly, human GLP-1R or Glucagon Receptor 9-3-H cells over-expressing a promiscuous G-protein (Millipore, Billerica, Mass.) were plated at 15,000 cells/well in black-walled 384-well plates (Greiner Bio-one, Monroe, N.C.) in Dulbecco's Modified Eagles Medium (DMEM) with 10% FCS, 4.0 mM L-glutamine, non-essential amino acids (NEAAs), and 10.0 mM HEPES without antibiotics. After overnight attachment, cells were washed twice with assay buffer (HBSS supplemented with 20 mM HEPES and 1.0 mM probenecid) using an ELx405CW cell washer (Bio-Tek, Winooski, Vt.) and then loaded with the calcium sensitive dye fluo-4 AM (Invitrogen, Grand Island, N.Y.) at a final concentration of 2.0 μM in assay buffer. After a 45-minute incubation at room temperature, the dye was removed by washing, leaving 20 μL of assay buffer. Next, the cell plate was introduced alongside a 384-well compound plate containing 0.1% final DMSO control wells and 11-point concentration response curves of putative GLP-1 PAMs created using a non-pipet based liquid transfer instrument, ECH0555 (Labcyte, Sunnyvale, Calif.). After a 20 μL compound addition to the appropriate wells, kinetic fluorescent measurements were collected for 2 minutes using an FDSS6000 (Hamamatsu, Bridgewater, N.J.) with 488 nm excitation and 480/540 emission filters. After 2 minutes, 10 μL of an EC20 concentration of GLP-1 peptide 7-36 amide (Phoenix Pharmaceuticals, Burlingame, Calif.), Glucagon (Phoenix Pharmaceuticals, Burlingame, Calif.) Exendin-4 (Tocris Bioscience, Bristol, UK), or Liraglutide (Victoza™, Novo-Nordisk, Denmark) was added and fluorescence was monitored for an additional 2 minutes to observe potentiation of the calcium flux signal. […] Recombinant peptides were reconstituted into assay buffer supplemented with 0.1% fatty acid free BSA (Sigma #A6003) and diluted into borosilicate glass tubes to maximize peptide recovery (Goebel-Stengel M, Stengel A, Tache Y, Reeve J R Jr., The importance of using the optimal plasticware and glassware in studies involving peptides. Anal. Biochem. 2011 Jul. 1, 414(1):38-46).\nData is from a single experiment unless otherwise noted. Data that is an average of two experiments is noted as “n=2” while data that is an average of three or more experiments is presented as the average plus or minus the standard error of the mean.", "note": "pEC50: −log10 of the molar value."}
{"molecule": "Cc1c2ccccc2n2c(C(=O)NC[C@@H]3CCCN3C(C)C)cn(-c3cnn(C)c3)c(=O)c12", "note": "[Compound 18, (S)-N-((1-isopropylpyrrolidin-2-yl)methyl)-10-methyl-2-(1-methyl-1H-pyrazol-4-yl)-1-oxo-1,2-dihydropyrazino[1,2-a]indole-4-carboxamide]", "values": [{"measurement": "Emax at 30 µM", "result": 34, "unit": "%"}, {"measurement": "pEC50", "result": 5.17}]}
{"molecule": "Cc1c2ccccc2n2c(C(=O)O)cn(C3CCCC3)c(=O)c12", "note": "[Compound I, 2-Cyclopentyl-10-methyl-1-oxo-1,2-dihydropyrazino[1,2-a]indole-4-carboxylic acid]", "values": [{"measurement": "pEC50", "result": "< 4.52"}]}
{"molecule": "Cc1c2ccccc2n2c(C(=O)NCC3CCN3)cn(C3CCCC3)c(=O)c12", "note": "(stereo not drawn) [Compound 22, N-(azetidin-2-ylmethyl)-2-cyclopentyl-10-methyl-1-oxo-1,2-dihydropyrazino[1,2-a]indole-4-carboxamide]", "values": [{"measurement": "pEC50", "result": "< 4.52"}]}
{"molecule": "Cc1c2ccccc2n2c(C(=O)NC[C@@H]3CCCN3C(C)C)cn(-c3cccnc3)c(=O)c12", "note": "[Compound 20, (S)-N-((1-isopropylpyrrolidin-2-yl)methyl)-10-methyl-1-oxo-2-(pyridin-3-yl)-1,2-dihydropyrazino[1,2-a]indole-4-carboxamide]", "values": [{"measurement": "Emax at 30 µM", "result": 36, "unit": "%"}, {"measurement": "pEC50", "result": 5.28}]}
{"molecule": "Cc1c2ccccc2n2c(C(=O)NC[C@@H]3CCCN3C(C)C)cn(-c3ccccc3)c(=O)c12", "note": "[Compound 14, (S)-N-((1-isopropylpyrrolidin-2-yl)methyl)-10-methyl-1-oxo-2-phenyl-1,2-dihydropyrazino[1,2-a]indole-4-carboxamide]", "values": [{"measurement": "Emax at 30 µM", "result": 45, "unit": "%"}, {"measurement": "pEC50", "result": 4.89}]}
{"molecule": "Cc1c2ccccc2n2c(C(=O)NCC3CCN3C(C)C)cn(C3CCCC3)c(=O)c12", "note": "(stereo not drawn) [Compound 24, 2-cyclopentyl-N-((1-isopropylazetidin-2-yl)methyl)-10-methyl-1-oxo-1,2-dihydropyrazino[1,2-a]indole-4-carboxamide]", "values": [{"measurement": "Emax at 30 µM", "result": 51, "unit": "%"}, {"measurement": "pEC50", "result": 4.92}]}
{"molecule": "Cc1c2ccccc2n2c(C(=O)NC[C@H]3CCCN3C(C)C)cn(-c3cccnc3)c(=O)c12", "note": "[Compound 21, (R)-N-((1-isopropylpyrrolidin-2-yl)methyl)-10-methyl-1-oxo-2-(pyridin-3-yl)-1,2-dihydropyrazino[1,2-a]indole-4-carboxamide]", "values": [{"measurement": "pEC50", "result": "< 4.52"}]}
{"molecule": "Cc1c2ccccc2n2c(C(=O)NC[C@H]3CCCN3C(C)C)cn(-c3cnn(C)c3)c(=O)c12", "note": "[Compound 19, (R)-N-((1-isopropylpyrrolidin-2-yl)methyl)-10-methyl-2-(1-methyl-1H-pyrazol-4-yl)-1-oxo-1,2-dihydropyrazino[1,2-a]indole-4-carboxamide]", "values": [{"measurement": "pEC50", "result": "< 4.52"}]}
{"molecule": "Cc1c2ccccc2n2c(CO)cn(C3CCCC3)c(=O)c12", "note": "[Compound 23, 2-cyclopentyl-4-(hydroxymethyl)-10-methylpyrazino[1,2-a]indol-1(2H)-one]", "values": [{"measurement": "pEC50", "result": "< 4.52"}]}
{"molecule": "C=Cc1c2ccccc2n2c(C(=O)NC[C@@H]3CCCN3C(C)C)cn(C3CCCC3)c(=O)c12", "note": "[Compound 17, (S)-2-cyclopentyl-N-((1-isopropylpyrrolidin-2-yl)methyl)-1-oxo-10-vinyl-1,2-dihydro-pyrazino[1,2-a]indole-4-carboxamide]", "values": [{"measurement": "Emax at 30 µM", "result": 37, "unit": "%"}, {"measurement": "pEC50", "result": 5.02}]}
{"molecule": "Cc1c2ccccc2n2c(C(=O)NC[C@H]3CCCN3C(C)C)cn(-c3ccccc3)c(=O)c12", "note": "[Compound 15, (R)-N-((1-isopropylpyrrolidin-2-yl)methyl)-10-methyl-1-oxo-2-phenyl-1,2-dihydropyrazino[1,2-a]indole-4-carboxamide]", "values": [{"measurement": "pEC50", "result": "< 4.52"}]}
{"molecule": "CC(C)N1CCC[C@H]1CNC(=O)c1cn(C2CCCC2)c(=O)c2c(C#N)c3ccccc3n12", "note": "[Compound 16, (S)-10-cyano-2-cyclopentyl-N-((1-isopropylpyrrolidin-2-yl)methyl)-1-oxo-1,2-dihydropyrazino[1,2-a]indole-4-carboxamide]", "values": [{"measurement": "Emax at 30 µM", "result": 43, "unit": "%"}, {"measurement": "pEC50", "result": 5.72}]}
